The values that follow are results of earlier work, collected in article PMC3935482 (Clinical cancer research : an official journal of the …, 2013).

Molecules are shown by their SMILES. Like-named read-outs stand apart in the source and are kept apart here.

[1] abbreviates: oral rapamycin and IV temsirolimus.

`CO[C@H]1C[C@@H]2CC[C@@H](C)[C@@](O)(O2)C(=O)C(=O)N2CCCC[C@H]2C(=O)O[C@H]([C@H](C)C[C@@H]2CC[C@@H](OP(C)(C)=O)[C@H](OC)C2)CC(=O)[C@H](C)/C=C(\C)[C@@H](O)[C@@H](OC)C(=O)[C@H](C)C[C@H](C)/C=C/C=C/C=C/1C` [deferolimus]: the Half-life (given by weekly IV infusion) was 45 to 52 h.
`CO[C@H]1C[C@@H]2CC[C@@H](C)[C@@](O)(O2)C(=O)C(=O)N2CCCC[C@H]2C(=O)O[C@H]([C@H](C)C[C@@H]2CC[C@@H](O)[C@H](OC)C2)CC(=O)[C@H](C)/C=C(\C)[C@@H](O)[C@@H](OC)C(=O)[C@H](C)C[C@H](C)/C=C/C=C/C=C/1C` [rapamycin]: the Cmax of rapamycin by setting is: (5 mg oral rapamycin) 15.5 ng/mL; (9 mg oral rapamycin) 37.9 ng/mL; (60 mg oral rapamycin) 57.72 ng/mL. The Half-life under setting [1] was 61 to 69 h.
For the compound `CO[C@H]1C[C@@H]2CC[C@@H](C)[C@@](O)(O2)C(=O)C(=O)N2CCCC[C@H]2C(=O)O[C@H]([C@H](C)C[C@@H]2CC[C@@H](OC(=O)C(C)(CO)CO)[C@H](OC)C2)CC(=O)[C@H](C)/C=C(\C)[C@@H](O)[C@@H](OC)C(=O)[C@H](C)C[C@H](C)/C=C/C=C/C=C/1C` [temsirolimus], the “Patients with dermatologic toxicities such as rash” value in the series with patients (patients receiving temsirolimus) is listed as “up to 50%”. In the series on patients (phase 2 study, 250 mg dose level), the “Grade 3 or 4 depression” value is given as 10%. The Half-life under setting [1] is 61 to 69 h.
